In patent publication US12012403B2, “Aryl sulfonyl compounds as CCR6 inhibitors” (CHEMOCENTRYX, INC., priority 2021, dated 2024):

What follows are compounds tested against T1, human CCR6 (Homo sapiens, UniProt P51684) (assay: Migration (chemotaxis) assay, hCCR6-transfected Ba/F3 cells toward CCL20). Settings: hCCR6-transfected Ba/F3 cells in human serum; recombinant human CCL20 10 nM; 37° C. 45 minutes; read-out: Potency (IC50 value in the migration assay).
T1 construct: expressed in transfected cells; host or cells: Ba/F3 cells (murine pro-B line), hCCR6-transfected, CMV promoter, sodium butyrate induction
T1 sequence (P51684 1-374): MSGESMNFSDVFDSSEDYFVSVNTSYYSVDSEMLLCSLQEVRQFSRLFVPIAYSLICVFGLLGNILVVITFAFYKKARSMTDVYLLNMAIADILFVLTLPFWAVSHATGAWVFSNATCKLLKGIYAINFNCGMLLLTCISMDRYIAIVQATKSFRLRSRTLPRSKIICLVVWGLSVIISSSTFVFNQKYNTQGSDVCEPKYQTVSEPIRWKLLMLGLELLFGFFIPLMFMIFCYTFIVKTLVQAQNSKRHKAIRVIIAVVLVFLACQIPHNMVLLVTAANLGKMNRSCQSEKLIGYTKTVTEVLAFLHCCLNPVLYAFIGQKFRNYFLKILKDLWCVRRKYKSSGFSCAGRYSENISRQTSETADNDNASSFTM
Type: cell-based
Summary of the method: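 Ba/F3 cells stably transfected with human CCR6 (CMV promoter), pre-induced 24 hr with sodium butyrate, suspended at 4 million/ml in human serum with test compound serially diluted from 10 μM final. Migration through 5-μm polycarbonate membrane toward 10 nM CCL20 (EC50) for 45 min at 37 °C; migrated cells quantified by CyQUANT fluorescence.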

| Structure (SMILES) | IC50 |
| --- | --- |
| CC(=O)N1CCCN(c2ccc(S(=O)(=O)N3CCC(Nc4ccc(C(F)(F)F)cn4)CC3)cc2)CC1 [Example 1.201] | 0.1 to 10 µM |
| CS(=O)(=O)NC1CCN(c2ccc(S(=O)(=O)N3CCC(Nc4ccc(C(F)(F)F)cn4)CC3)cc2)CC1 [Example 1.206] | 0.005 to 0.1 µM |
| O=C1NCCC12CCN(c1ccc(S(=O)(=O)N3CCC(Nc4ccc(C(F)(F)F)cn4)CC3)cc1)CC2 [Example 1.153] | 0.005 to 0.1 µM |
| NC(=O)NCCC1CCN(c2ccc(S(=O)(=O)N3CCC(Nc4ccc(C(F)(F)F)cn4)CC3)cc2)CC1 [Example 1.125] | 0.005 to 0.1 µM |
| O=C1NCC2(CCN(c3ccc(S(=O)(=O)N4CCC(Nc5ccc(C(F)(F)F)cn5)CC4)cc3)CC2)N1 [Example 1.150] | 0.005 to 0.1 µM |
| NC(=O)CN1CCN(c2ccc(S(=O)(=O)N3CCC(Nc4ccc(C(F)(F)F)cn4)CC3)cc2)CC1 [Example 1.122] | 0.005 to 0.1 µM |
| NC(=O)N1CCC12CN(c1ccc(S(=O)(=O)N3CCC(Nc4ccc(C(F)(F)F)cn4)CC3)cc1)C2 [Example 1.142] | 0.005 to 0.1 µM |
| O=S(=O)(c1ccc(N2[C@@H]3CC[C@H]2C[C@@H](O)C3)cc1)N1CCC(Nc2ccc(C(F)(F)F)cn2)CC1 [Example 1.180] | 0.005 to 0.1 µM |
| O=S(=O)(c1ccc(N2CCN(c3nnc[nH]3)CC2)cc1)N1CCC(Nc2ccc(C(F)(F)F)cn2)CC1 [Example 1.174] | 0.1 to 10 µM |
| NC(=O)C1CCN(c2ccc(S(=O)(=O)N3CCC(Nc4ccc(C(F)(F)F)cn4)CC3)cc2)CC1 [Example 1.228] | 0.005 to 0.1 µM |
| NC(=O)N[C@H]1CCCN(c2ccc(S(=O)(=O)N3CCC(Nc4ccc(C(F)(F)F)cn4)CC3)cc2)C1 [Example 1.191] | 0.1 to 10 µM |
| O=S(=O)(c1ccc(N2CCC(Nc3ccccc3)CC2)cc1)N1CCC(Nc2ccc(C(F)(F)F)cn2)CC1 [Example 1.220] | 0.005 to 0.1 µM |
| CS(=O)(=O)N1CCCN(c2ccc(S(=O)(=O)N3CCC(Nc4ccc(C(F)(F)F)cn4)CC3)cc2)CC1 [Example 1.199] | 0.1 to 10 µM |
| O=C1NCCCC12CCN(c1ccc(S(=O)(=O)N3CCC(Nc4ccc(C(F)(F)F)cn4)CC3)cc1)CC2 [Example 1.165] | < 0.005 µM |
| NC(=O)C1CC12CCN(c1ccc(S(=O)(=O)N3CCC(Nc4ccc(C(F)(F)F)cn4)CC3)cc1)CC2 (stereo not shown) [Example 1.137] | 0.1 to 10 µM |
| O=C(CO)N1CCN(c2ccc(S(=O)(=O)N3CCC(Nc4ccc(C(F)(F)F)cn4)CC3)cc2)CC1 [Example 1.194] | 0.005 to 0.1 µM |
| NC(=O)N1CCC(c2ccc(S(=O)(=O)N3CCC(Nc4ccc(C(F)(F)F)cn4)CC3)cc2)CC1 [Example 1.216] | 0.005 to 0.1 µM |
| NC(=O)N1C[C@@H]2CN(c3ccc(S(=O)(=O)N4CCC(Nc5ccc(C(F)(F)F)cn5)CC4)cc3)C[C@@H]2C1 [Example 1.176] | 0.005 to 0.1 µM |
| O=C1NC(=O)C2(CCCN(c3ccc(S(=O)(=O)N4CCC(Nc5ccc(C(F)(F)F)cn5)CC4)cc3)C2)N1 (stereo not shown) [Example 1.224] | 0.1 to 10 µM |
| NC(=O)C1(C2CCN(c3ccc(S(=O)(=O)N4CCC(Nc5ccc(C(F)(F)F)cn5)CC4)cc3)CC2)CC1 [Example 1.124] | 0.005 to 0.1 µM |
| O=C1NC2(CCN(c3ccc(S(=O)(=O)N4CCC(Nc5ccc(C(F)(F)F)cn5)CC4)cc3)CC2)CO1 [Example 1.148] | < 0.005 µM |

The next lines start with the values.

| IC50 | Structure (SMILES) |
| --- | --- |
| 0.1 to 10 µM | N#CC1CCN(c2ccc(S(=O)(=O)N3CCC(Nc4ccc(C(F)(F)F)cn4)CC3)cc2)CC1 [Example 1.171] |
| 0.005 to 0.1 µM | O=S(=O)(c1ccc(-c2ccnc3[nH]ccc23)cc1)N1CCC(Nc2ccc(C(F)(F)F)cn2)CC1 [Example 1.083] |
| 0.005 to 0.1 µM | O=S(=O)(c1ccc(N2CCC[C@@H](O)C2)cc1)N1CCC(Nc2ccc(C(F)(F)F)cn2)CC1 [Example 1.185] |
| 0.005 to 0.1 µM | O=C1COc2cc(-c3ccc(S(=O)(=O)N4CCC(Nc5ccc(C(F)(F)F)cn5)CC4)cc3)ccc2N1 [Example 1.074] |
| 0.005 to 0.1 µM | NC(=O)CN1Cc2ccc(-c3ccc(S(=O)(=O)N4CCC(Nc5ccc(C(F)(F)F)cn5)CC4)cc3)cc2C1=O [Example 1.040] |
| < 0.005 µM | NC(=O)c1n[nH]c2ccc(-c3ccc(S(=O)(=O)N4CCC(Nc5ccc(C(F)(F)F)cn5)CC4)cc3)cc12 [Example 1.095] |
| < 0.005 µM | O=c1[nH]c2ccc(-c3ccc(S(=O)(=O)N4CCC(Nc5ccc(C(F)(F)F)cn5)CC4)cc3)cc2o1 [Example 1.097] |
| 0.005 to 0.1 µM | N=[S@](=O)(c1ccc(-c2ccc3oc(N)nc3c2)cc1)N1CCC(Nc2ccc(C(F)(F)F)cn2)CC1 [Example 1.116] |
| < 0.005 µM | O=c1[nH]c2cc(-c3ccc(S(=O)(=O)N4CCC(Nc5ccc(C(F)(F)F)cn5)CC4)cc3)cnc2[nH]1 [Example 1.067] |
| 0.005 to 0.1 µM | O=S(=O)(c1ccc(N2CCCCC2)cc1)N1CCC(Nc2ccc(C(F)(F)F)cn2)CC1 [Example 1.235] |
| 0.005 to 0.1 µM | O=C1Cc2cc(-c3ccc(S(=O)(=O)N4CCC(Nc5ccc(C(F)(F)F)cc5)CC4)cc3)ccc2N1 [Example 1.050] |
| < 0.005 µM | Cn1nc(C#N)c2cc(-c3ccc(S(=O)(=O)N4CCC(Nc5ccc(C(F)(F)F)cn5)CC4)cc3)ccc21 [Example 1.091] |
| < 0.005 µM | Nc1nnc2ccc(-c3ccc(S(=O)(=O)N4CCC(Nc5ccc(C(F)(F)F)cn5)CC4)cc3)cn12 [Example 1.016] |
| < 0.005 µM | NC(=O)N1Cc2ccc(-c3ccc(S(=O)(=O)N4CCC(Nc5ccc(C(F)(F)F)cn5)CC4)cc3)cc2C1 [Example 1.054] |
| < 0.005 µM | O=C1c2cc(-c3ccc(S(=O)(=O)N4CCC(Nc5ccc(C(F)(F)F)cn5)CC4)cc3)ccc2CN1CCO [Example 1.033] |
| 0.005 to 0.1 µM | CC(C)(C)OC(=O)NCCN1C(=O)C2(CC2)c2cc(-c3ccc(S(=O)(=O)N4CCC(Nc5ccc(C(F)(F)F)cn5)CC4)cc3)cnc21 [Example 1.004] |
| < 0.005 µM | CC(C)(C)OC(=O)NCCn1cc(C#N)c2cc(-c3ccc(S(=O)(=O)N4CCC(Nc5ccc(C(F)(F)F)cn5)CC4)cc3)cnc21 [Example 1.014] |
| 0.005 to 0.1 µM | COc1n[nH]c2ccc(-c3ccc(S(=O)(=O)N4CCC(Nc5ccc(C(F)(F)F)cn5)CC4)cc3)cc12 [Example 1.077] |
| < 0.005 µM | O=C1NCCc2ccc(-c3ccc(S(=O)(=O)N4CCC(Nc5ccc(C(F)(F)F)cn5)CC4)cc3)cc21 [Example 1.066] |
